Starred links: 1 amine or outer side, 2 acyl side, 3 side chain; linkers in the order of their positions; H or OH if unused. Positions of bridges follow the written chain, without caps; N, C: chain ends. Non-standard residues stand in square brackets, D forms with d. Residues, ends and D or L forms follow the SMILES beside them. TATA = O=C(CC[*:1])N1CN(C(=O)CC[*:2])CN(C(=O)CC[*:3])C1; Dip = N[C@H](C(=O)O)C(c1ccccc1)c1ccccc1; 1Nal = N[C@@H](Cc1cccc2ccccc12)C(=O)O; d1Nal = N[C@H](Cc1cccc2ccccc12)C(=O)O; Hyp = O=C(O)[C@@H]1C[C@@H](O)CN1; hArg = N=C(N)NCCCC[C@H](N)C(=O)O; Cba = N[C@@H](CC1CCC1)C(=O)O; NMeA = CN[C@@H](C)C(=O)O

The target of this assay is human EphA2 (Homo sapiens, UniProt P29317). Kind of assay: biochemical.
Chain of human EphA2 (P29317 24-976): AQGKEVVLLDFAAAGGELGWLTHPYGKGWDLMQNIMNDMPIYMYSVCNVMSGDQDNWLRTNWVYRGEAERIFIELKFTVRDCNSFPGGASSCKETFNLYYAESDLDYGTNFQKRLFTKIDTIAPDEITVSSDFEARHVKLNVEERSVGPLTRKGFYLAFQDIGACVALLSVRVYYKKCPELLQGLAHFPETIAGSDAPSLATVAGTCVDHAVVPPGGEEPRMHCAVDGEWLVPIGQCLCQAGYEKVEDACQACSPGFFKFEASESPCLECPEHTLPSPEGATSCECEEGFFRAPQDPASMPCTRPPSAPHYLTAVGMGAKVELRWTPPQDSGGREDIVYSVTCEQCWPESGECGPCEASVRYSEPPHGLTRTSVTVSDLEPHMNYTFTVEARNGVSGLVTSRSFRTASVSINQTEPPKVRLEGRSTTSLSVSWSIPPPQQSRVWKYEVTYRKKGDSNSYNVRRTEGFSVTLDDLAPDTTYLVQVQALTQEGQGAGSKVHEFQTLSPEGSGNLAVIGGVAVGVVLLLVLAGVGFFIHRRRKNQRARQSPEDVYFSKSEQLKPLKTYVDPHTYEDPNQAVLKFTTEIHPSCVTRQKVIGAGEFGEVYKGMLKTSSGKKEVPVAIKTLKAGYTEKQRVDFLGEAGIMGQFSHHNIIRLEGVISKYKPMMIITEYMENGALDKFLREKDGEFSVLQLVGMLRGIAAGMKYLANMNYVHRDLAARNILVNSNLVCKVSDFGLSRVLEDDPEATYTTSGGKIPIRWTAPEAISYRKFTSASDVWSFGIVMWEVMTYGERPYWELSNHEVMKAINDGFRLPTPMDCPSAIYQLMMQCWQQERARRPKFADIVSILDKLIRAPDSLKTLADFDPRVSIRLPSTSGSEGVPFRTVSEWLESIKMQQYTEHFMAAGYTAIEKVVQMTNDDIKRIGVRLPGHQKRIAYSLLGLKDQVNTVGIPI
Experimental: Peptides without a fluorescent tag were tested in competition with a peptide with a fluorescent tag and a known Kd.
Peptides were diluted to an appropriate concentration in assay buffer as described in the direct binding assay with a maximum of 5% DMSO, then serially diluted 1 in 2. […] Measurements were conducted, however the gain was determined prior to the first measurement. Data analysis was in Systat Sigmaplot version 12.0 where the mP values were fit to a user defined cubic equation to generate a Ki value:
“Lig”, “KLig” and “Prot” were all defined values relating to: fluorescent peptide concentration, the Kd of the fluorescent peptide and EphA2 concentration respectively.
In general, Ki refers to a dissociation constant, usually derived from enzyme kinetics or from competition with a known ligand. Read a high Ki as lower affinity. `CC(C)C[C@@H]1NC(=O)[C@@H]2CSCCC(=O)N3CN(CN(C3)C(=O)CCSC[C@H](NC(=O)[C@H](CC(=O)O)NC(=O)[C@H](CCCCNC(=N)N)NC(=O)[C@H](C)N)C(=O)N3C[C@H](O)C[C@H]3C(=O)N[C@@H](CC(C)C)C(=O)N[C@@H](C(C)C)C(=O)N[C@@H](CC(N)=O)C(=O)N3CCC[C@H]3C(=O)N[C@@H](CC(C)C)C(=O)N2)C(=O)CCSC[C@@H](C(N)=O)NC(=O)[C@H](CCCCNC(=N)N)NC(=O)[C@H](Cc2c[nH]c3ccccc23)NC(=O)[C@@H](CC(=O)O)NC(=O)[C@@H]2CCCN2C(=O)[C@H](CCC(=O)O)NC1=O` [BCY12854, A-[HArg]-D-Ci[HyP]LVNPLCiiLEP[dD]W[HArg]Ciii] (H-A[hArg]DC[Hyp]LVNPLCLEP[dD]W[hArg]C-NH2; linker 4-11-18 via TATA; N-terminus and C-terminus assumed) yielded a Ki of 9.34 nM.
In turn, `CC(C)C[C@@H]1NC(=O)[C@@H]2CSCCC(=O)N3CN(CN(C3)C(=O)CCSC[C@H](NC(=O)[C@H](CC(=O)O)NC(=O)[C@H](CCCCNC(=N)N)NC(=O)[C@H](C)N)C(=O)N3C[C@H](O)C[C@H]3C(=O)N[C@@H](CC(C)C)C(=O)N[C@@H](C(C)C)C(=O)N[C@@H](CC(N)=O)C(=O)N3CCC[C@H]3C(=O)N[C@@H](CC(C)C)C(=O)N2)C(=O)CCSC[C@@H](C(N)=O)NC(=O)[C@H]([C@@H](C)O)NC(=O)[C@H](Cc2c[nH]c3ccccc23)NC(=O)[C@@H](CC(=O)O)NC(=O)[C@@H]2CCCN2C(=O)[C@H](Cc2c[nH]cn2)NC1=O` [BCY12855, A-[HArg]-D-Ci[HyP]LVNPLCiiLHP[dD]WTCiii] (H-A[hArg]DC[Hyp]LVNPLCLHP[dD]WTC-NH2; linker 4-11-18 via TATA; N-terminus and C-terminus assumed) registered a Ki of 5.55 nM.
The value for `CC(C)C[C@@H]1NC(=O)[C@@H]2CSCCC(=O)N3CN(CN(C3)C(=O)CCSC[C@H](NC(=O)[C@H](CC(=O)O)NC(=O)[C@H](CCCCNC(=N)N)NC(=O)[C@H](C)N)C(=O)N3C[C@H](O)C[C@H]3C(=O)N[C@@H](CC(C)C)C(=O)N[C@@H](C(C)C)C(=O)N[C@@H](CC(N)=O)C(=O)N3CCC[C@H]3C(=O)N[C@@H](CC(C)C)C(=O)N2)C(=O)CCSC[C@@H](C(=O)N[C@H](C)C(N)=O)NC(=O)[C@H]([C@@H](C)O)NC(=O)[C@H](Cc2c[nH]c3ccccc23)NC(=O)[C@@H](CC(=O)O)NC(=O)[C@@H]2CCCN2C(=O)[C@H](CCC(=O)O)NC1=O` [BCY12857, A-[HArg]-D-Ci[HyP]LVNPLCiiLEP[dD]WTCiii[dA]] (H-A[hArg]DC[Hyp]LVNPLCLEP[dD]WTC[dA]-NH2; linker 4-11-18 via TATA; N-terminus and C-terminus assumed) was 16 nM.
Consider `CC(C)C[C@@H]1NC(=O)[C@@H]2CSCCC(=O)N3CN(CN(C3)C(=O)CCSC[C@H](N)C(=O)N3C[C@H](O)C[C@H]3C(=O)N[C@@H](CC(C)C)C(=O)N[C@@H](C(C)C)C(=O)N[C@@H](CC(N)=O)C(=O)N3CCC[C@H]3C(=O)N[C@@H](CC(C)C)C(=O)N2)C(=O)CCSC[C@@H](C(N)=O)NC(=O)[C@H]([C@@H](C)O)NC(=O)[C@H](Cc2c[nH]c3ccccc23)NC(=O)[C@@H](CC(=O)O)NC(=O)[C@@H]2CCCN2C(=O)[C@H](C(c2ccccc2)c2ccccc2)NC1=O` [BCY12860, Ci[HyP]LVNPLCiiL[3,3-DPA]P[dD]WTCiii] (H-C[Hyp]LVNPLCL[Dip]P[dD]WTC-NH2; linker 1-8-15 via TATA; N-terminus and C-terminus assumed), for which the affinity, expressed as Ki, was 0.66 nM.
`CC(C)C[C@@H]1NC(=O)[C@@H]2CSCCC(=O)N3CN(CN(C3)C(=O)CCSC[C@H](N)C(=O)N3C[C@H](O)C[C@H]3C(=O)N[C@@H](CC(C)C)C(=O)N[C@@H](C(C)C)C(=O)N[C@@H](CC(N)=O)C(=O)N3CCC[C@H]3C(=O)N[C@@H](CC(C)C)C(=O)N2)C(=O)CCSC[C@@H](C(=O)N[C@H](C)C(N)=O)NC(=O)[C@H]([C@@H](C)O)NC(=O)[C@H](Cc2c[nH]c3ccccc23)NC(=O)[C@@H](CC(=O)O)NC(=O)[C@@H]2CCCN2C(=O)[C@H](CCC(=O)O)NC1=O` [BCY12861, Ci[HyP]LVNPLCiiLEP[dD]WTCiii[dA]] (H-C[Hyp]LVNPLCLEP[dD]WTC[dA]-NH2; linker 1-8-15 via TATA; N-terminus and C-terminus assumed) yielded a Ki of 21.7 nM.
Regarding `CC(C)C[C@@H]1NC(=O)[C@@H]2CSCCC(=O)N3CN(CN(C3)C(=O)CCSC[C@H](NC(=O)[C@H](CC(=O)O)NC(=O)[C@H](CCCCNC(=N)N)NC(=O)[C@H](C)N)C(=O)N3C[C@H](O)C[C@H]3C(=O)N[C@@H](CC3CCC3)C(=O)N[C@@H](C(C)C)C(=O)N[C@@H](CC(N)=O)C(=O)N3CCC[C@H]3C(=O)N[C@@H](CC(C)C)C(=O)N2)C(=O)CCSC[C@@H](C(N)=O)NC(=O)[C@H](CCCCNC(=N)N)NC(=O)[C@H](Cc2c[nH]c3ccccc23)NC(=O)[C@@H](CC(=O)O)NC(=O)[C@@H]2CCCN2C(=O)[C@H](Cc2c[nH]cn2)NC1=O` [BCY12862, A-[HArg]-D-Ci[HyP][Cba]VNPLCiiLHP[dD]W[HArg]Ciii] (H-A[hArg]DC[Hyp][Cba]VNPLCLHP[dD]W[hArg]C-NH2; linker 4-11-18 via TATA; N-terminus and C-terminus assumed), affinity was put at a Ki of 1.22 nM.
`CC(C)C[C@@H]1NC(=O)[C@@H]2CSCCC(=O)N3CN(CN(C3)C(=O)CCSC[C@H](NC(=O)[C@H](CC(=O)O)NC(=O)[C@H](CCCCNC(=N)N)NC(=O)[C@@H](C)N)C(=O)N3C[C@H](O)C[C@H]3C(=O)N[C@@H](CC3CCC3)C(=O)N[C@@H](C(C)C)C(=O)N[C@@H](CC(N)=O)C(=O)N3CCC[C@H]3C(=O)N[C@@H](CC(C)C)C(=O)N2)C(=O)CCSC[C@@H](C(=O)N[C@H](C)C(N)=O)NC(=O)[C@H]([C@@H](C)O)NC(=O)[C@H](Cc2c[nH]c3ccccc23)NC(=O)[C@@H](CC(=O)O)NC(=O)[C@@H]2CCCN2C(=O)[C@H](CCC(=O)O)NC1=O` [BCY12864, [dA]-[HArg]-D-Ci[HyP][Cba]VNPLCiiLEP[dD]WTCiii-[dA]] (H-[dA][hArg]DC[Hyp][Cba]VNPLCLEP[dD]WTC[dA]-NH2; linker 4-11-18 via TATA; N-terminus and C-terminus assumed) gave a Ki of 9.29 nM.
As to `CC(C)C[C@@H]1NC(=O)[C@@H]2CSCCC(=O)N3CN(CN(C3)C(=O)CCSC[C@H](NC(=O)[C@H](CC(=O)O)NC(=O)[C@H](CCCCNC(=N)N)NC(=O)[C@H](C)N)C(=O)N3C[C@H](O)C[C@H]3C(=O)N[C@@H](CC(C)C)C(=O)N[C@@H](C(C)C)C(=O)N[C@@H](CC(N)=O)C(=O)N3CCC[C@H]3C(=O)N[C@@H](CC(C)C)C(=O)N2)C(=O)CCSC[C@@H](C(N)=O)NC(=O)[C@H](CCCCNC(=N)N)NC(=O)[C@H](Cc2c[nH]c3ccccc23)NC(=O)[C@@H](CC(=O)O)NC(=O)[C@@H]2CCCN2C(=O)[C@H](Cc2cccc3ccccc23)NC1=O` [BCY13117, A-[HArg]-D-Ci[HyP]LVNPLCiiL[1Nal]P[dD]W[HArg]Ciii] (H-A[hArg]DC[Hyp]LVNPLCL[1Nal]P[dD]W[hArg]C-NH2; linker 4-11-18 via TATA; N-terminus and C-terminus assumed), the Ki was determined as 1.12 nM.
Compound `CC(C)C[C@@H]1NC(=O)[C@@H]2CSCCC(=O)N3CN(CN(C3)C(=O)CCSC[C@H](NC(=O)[C@H](CC(=O)O)NC(=O)[C@H](CCCCNC(=N)N)NC(=O)[C@H](C)N)C(=O)N3C[C@H](O)C[C@H]3C(=O)N[C@@H](CC(C)C)C(=O)N[C@@H](C(C)C)C(=O)N[C@@H](CC(N)=O)C(=O)N3CCC[C@H]3C(=O)N[C@@H](CC(C)C)C(=O)N2)C(=O)CCSC[C@@H](C(N)=O)NC(=O)[C@H]([C@@H](C)O)NC(=O)[C@H](Cc2c[nH]c3ccccc23)NC(=O)[C@@H](Cc2cccc3ccccc23)NC(=O)[C@@H]2CCCN2C(=O)[C@H](CCC(=O)O)NC1=O` [BCY13118, A-[HArg]-D-Ci[HyP]LVNPLCiiLEP[d1Nal]WTCiii] (H-A[hArg]DC[Hyp]LVNPLCLEP[d1Nal]WTC-NH2; linker 4-11-18 via TATA; N-terminus and C-terminus assumed) showed a Ki of 5.42 nM.
In turn, `CC(C)C[C@@H]1NC(=O)[C@@H]2CSCCC(=O)N3CN(CN(C3)C(=O)CCSC[C@H](N)C(=O)N3C[C@H](O)C[C@H]3C(=O)N[C@@H](CC(C)C)C(=O)N[C@@H](C(C)C)C(=O)N[C@@H](CC(N)=O)C(=O)N3CCC[C@H]3C(=O)N[C@@H](CC(C)C)C(=O)N2)C(=O)CCSC[C@@H](C(N)=O)NC(=O)[C@H]([C@@H](C)O)NC(=O)[C@H](Cc2c[nH]c3ccccc23)NC(=O)[C@@H](CC(=O)O)NC(=O)[C@@H]2CCCN2C(=O)[C@H](Cc2cccc3ccccc23)NC1=O` [BCY13119, Ci[HyP]LVNPLCiiL[1Nal]P[dD]WTCiii] (H-C[Hyp]LVNPLCL[1Nal]P[dD]WTC-NH2; linker 1-8-15 via TATA; N-terminus and C-terminus assumed) registered a Ki of 2.64 nM.
`CC(=O)N[C@H]1CSCCC(=O)N2CN3CN(C2)C(=O)CCSC[C@@H](C(=O)N[C@H](CCCCN)C(N)=O)NC(=O)[C@H]([C@@H](C)O)NC(=O)[C@H](Cc2c[nH]c4ccccc24)NC(=O)[C@@H](CC(=O)O)NC(=O)[C@@H]2CCCN2C(=O)[C@H](C(c2ccccc2)c2ccccc2)NC(=O)[C@H](CC(C)C)NC(=O)[C@H](CSCCC3=O)NC(=O)[C@H](CC(C)C)NC(=O)[C@@H]2CCCN2C(=O)[C@H](CC(N)=O)NC(=O)[C@H](C(C)C)NC(=O)[C@H](CC(C)C)NC(=O)[C@@H]2C[C@@H](O)CN2C1=O` [BCY13120, Ac-Ci[HyP]LVNPLCiiL[3,3-DPA]P[dD]WTCiii-[dK]] (Ac-C[Hyp]LVNPLCL[Dip]P[dD]WTC[dK]-NH2; linker 1-8-15 via TATA; C-terminus assumed) registered an inhibition constant (Ki) of 0.916 nM.
With `CN[C@@H](C)C(=O)N[C@@H](CCCCNC(=N)N)C(=O)N[C@@H](CC(=O)O)C(=O)N[C@H]1CSCCC(=O)N2CN3CN(C2)C(=O)CCSC[C@H](NC(=O)[C@H](CC(C)C)NC(=O)[C@@H]2CCCN2C(=O)[C@H](CC(N)=O)NC(=O)[C@H](C(C)C)NC(=O)[C@H](CC(C)C)NC(=O)[C@@H]2C[C@@H](O)CN2C1=O)C(=O)N[C@@H](CC(C)C)C(=O)N[C@@H](Cc1c[nH]cn1)C(=O)N1CCC[C@H]1C(=O)N[C@H](CC(=O)O)C(=O)N[C@@H](Cc1c[nH]c2ccccc12)C(=O)N[C@@H](CCCCNC(=N)N)C(=O)N[C@H](C(N)=O)CSCCC3=O` [BCY13121, [NMeAla]-[HArg]-D-Ci[HyP]LVNPLCiiLHP[dD]W[HArg]Ciii] (H-[NMeA][hArg]DC[Hyp]LVNPLCLHP[dD]W[hArg]C-NH2; linker 4-11-18 via TATA; N-terminus and C-terminus assumed), the Ki turned out to be 1.49 nM.

(Values after patent publication US12570695B2, “Bicyclic peptide ligands specific for EphA2” (priority 2019, dated 2026).)
